Activity calls are given as the source filed them. The rule behind the calls is not given here.
Columns and labels:
[1] = Stability in human liver microsomes assessed as half life at 1 uM incubated upto 180 mins by LC-MS/MS analysis; type: ADME, Microsome
[2] = Inhibition of recombinant BCR/FGFR1 (unknown origin) transduced in mouse BaF3 cells incubated for 48 hrs by Cell Titer Glo assay; type: cell-based; details: BaF3, 48 h
[3] = Inhibition of recombinant FGFR3/BAIAP2L1 (unknown origin) transduced in mouse BaF3 cells incubated for 48 hrs by Cell Titer Glo assay; type: cell-based; details: BaF3, 48 h
[4] = Inhibition of recombinant BCR/FGFR2 (unknown origin) transduced in mouse BaF3 cells incubated for 48 hrs by Cell Titer Glo assay; type: cell-based; details: BaF3, 48 h
RT112/84 [5] = test: cells; type: functional, cell-based; details: Homo sapiens
Description: Inhibition of cell viability in human RT112/84 cells harboring FGFR3/TACC3 fusion incubated for 72 to 120 hrs by Cell Titer Glo assay

[6] = Inhibition of cell viability in human UMUC14 cells harboring FGFR3 S249C mutant incubated for 72 to 120 hrs by Cell Titer Glo assay; type: functional, cell-based
KG-1 = test: Inhibition of cell viability in human KG-1 cells harboring FGFR1-fusion incubated for 72 to 120 hrs by Cell Titer Glo assay; type: functional, cell-based
RT112/84 [7] = test: cells; type: functional, cell-based; details: Homo sapiens; remark: listed apart in the source
Description: Inhibition of cell viability in human RT112/84 cells harboring FGFR3 V555M mutant incubated for 72 to 120 hrs by Cell Titer Glo assay

[8] = Inhibition of recombinant BCR/FGFR4 (unknown origin) transduced in mouse BaF3 cells incubated for 48 hrs by Cell Titer Glo assay; type: cell-based; details: BaF3, 48 h
RT112/84 [9] = test: Antitumor activity against human RT112/84 cells harboring FGFR3/TACC3 fusion xenografted in Balb/c nude mouse model at 15 mg/kg, po bid treated for 21 days relative to control; type: functional; details: for inhibition in vivo at 15 mg/kg: RT112/84, 504 h, time 21 day, read-out: TGI
[10] = Stability in human hepatocytes assessed as half life at 1 uM incubated upto 180 mins by LC-MS/MS analysis; type: ADME, cell-based, Hepatocyte
RT-4 = test: Inhibition of cell viability in human RT-4 cells harboring FGFR3/TACC3 fusion incubated for 72 to 120 hrs by Cell Titer Glo assay; type: functional, cell-based
RT112/84 [11] = test: animal or person; type: functional, Homo sapiens; details: Mus musculus, RT112/84, 504 h, route po, time 21 day, read-out: TGI
Description: Antitumor activity against human RT112/84 cells harboring FGFR3 V555M mutant xenografted in Balb/c nude mouse model at 12.5 mg/kg, po bid treated for 21 days relative to control

DMS-114 = test: Inhibition of cell viability in human DMS-114 cells harboring FGFR1-amplification incubated for 72 to 120 hrs by Cell Titer Glo assay; type: functional, cell-based
RT112/84 [12] = test: animal or person; type: functional, Homo sapiens; details: Mus musculus, RT112/84, 504 h, route po, time 21 day, read-out: TGI; remark: listed apart in the source
Description: Antitumor activity against human RT112/84 cells harboring FGFR3/TACC3 fusion xenografted in Balb/c nude mouse model at 12.5 mg/kg, po bid treated for 21 days relative to control

[13] = Inhibition of cell viability in human UMUC14 cells harboring FGFR3 V555M mutant incubated for 72 to 120 hrs by Cell Titer Glo assay; type: functional, cell-based

SMILES	half-life at 1 µM [1] [min]	IC50 [2] [nM]	IC50 [3] [nM]	IC50 [4] [nM]	IC50 (RT112/84 [5]) [nM]	IC50 [6] [nM]	IC50 (KG-1) [nM]	IC50 (RT112/84 [7]) [nM]	IC50 [8] [nM]	inhibition in vivo at 15 mg/kg (RT112/84 [9]) [%]	half-life at 1 µM [10] [min]	IC50 (RT-4) [nM]	inhibition in vivo at 12.5 mg/kg (RT112/84 [11]) [%]	IC50 (DMS-114) [nM]	inhibition in vivo at 12.5 mg/kg (RT112/84 [12]) [%]	IC50 [13] [nM]	Activity (RT112/84 [9]; time 21.0 day)
C[C@@H](Oc1ccc2[nH]nc(-c3ccc(C4CCN(S(C)(=O)=O)CC4)nc3)c2c1)c1c(Cl)cncc1Cl	15	99	5.3	–	–	–	–	–	–	–	–	–	–	–	–	–	–
C[C@@H](Oc1ccc2[nH]nc(-c3ccc(N4CC5(CCN(S(C)(=O)=O)C5)C4)nc3)c2c1)c1c(Cl)cncc1Cl	–	401	16	222	13	13	205	36	177	22	> 100	–	–	–	–	–	–
C[C@@H](Oc1ccc2[nH]nc(-c3ccc(N4CC5(CCS(=O)(=O)CC5)C4)nc3)c2c1)c1c(Cl)cncc1Cl	–	129	11	132	8.3	10	332	17	169	76	86	–	–	–	–	–	–
C[C@@H](Oc1ccc2[nH]nc(-c3ccc(N4CCN(C(=O)N(C)C)CC4)nc3)c2c1)c1c(Cl)cncc1Cl	1.1	290	13	249	–	–	–	–	307	–	–	–	–	–	–	–	–
COc1cc(OC)cc(N(CCNC(C)C)c2ccc3ncc(-c4cnn(C)c4)nc3c2)c1 [ERDAFITINIB]	–	5.2	2.6	3.8	3.6	3.8	2.1	2150	11	–	–	4.4	12	11	73	> 3000	–
COC(=O)N1CCN(c2ccc(-c3n[nH]c4ccc(O[C@H](C)c5c(Cl)cncc5Cl)cc34)cn2)CC1	8.5	556	38	387	–	–	–	–	591	–	–	–	–	–	–	–	–
CCC(=O)N1CCN(c2ccc(-c3n[nH]c4ccc(O[C@H](C)c5c(Cl)cncc5Cl)cc34)cn2)CC1	4.7	112	6	–	–	–	–	–	–	–	–	–	–	–	–	–	–
CC(C)N1CC2(CN(c3ccc(-c4n[nH]c5ccc(O[C@H](C)c6c(Cl)cncc6Cl)cc45)cn3)C2)C1	–	59	4.1	35	–	–	–	–	22	–	51	–	–	–	–	–	–
C[C@@H](Oc1ccc2[nH]nc(-c3ccc(N4CC5(CCCN(S(C)(=O)=O)C5)C4)nc3)c2c1)c1c(Cl)cncc1Cl	–	94	6	62	–	–	–	–	39	–	40	–	–	–	–	–	–
C[C@@H](Oc1ccc2[nH]nc(-c3ccc(N4CC5(CCN(S(C)(=O)=O)CC5)C4)nc3)c2c1)c1c(Cl)cncc1Cl	–	212	14	127	15	15	1570	42	147	64	> 100	–	–	–	–	–	–
C[C@@H](Oc1ccc2[nH]nc(-c3ccc(N4CCN(C(=O)N5CCN(C)CC5)CC4)nc3)c2c1)c1c(Cl)cncc1Cl	3.5	113	6.5	114	–	–	–	–	148	–	–	–	–	–	–	–	–
C[C@@H](Oc1ccc2[nH]nc(-c3cnc(N4CC5(C4)CN(S(C)(=O)=O)C5)cn3)c2c1)c1c(Cl)cncc1Cl	–	189	16	97	–	–	–	–	21	–	> 100	–	–	–	–	–	–
C[C@@H](Oc1ccc2[nH]nc(-c3ccc(N4CCN(S(C)(=O)=O)CC4)nc3)c2c1)c1c(Cl)cncc1Cl	9.6	150	5.8	104	–	–	–	–	156	–	–	–	–	–	–	–	–
C[C@@H](Oc1ccc2[nH]nc(-c3ccc(N4CC5CC(C4)N5S(C)(=O)=O)nc3)c2c1)c1c(Cl)cncc1Cl	15	338	23	–	–	–	–	–	–	–	–	–	–	–	–	–	–
C[C@@H](Oc1ccc2[nH]nc(-c3ccc(N4CCN(C)CC4)nc3)c2c1)c1c(Cl)cncc1Cl	5	46	3.6	28	–	–	–	–	27	–	–	–	–	–	–	–	–
C[C@@H](Oc1ccc2[nH]nc(-c3cnc(N4CC5(C4)CN(S(C)(=O)=O)C5)nc3)c2c1)c1c(Cl)cncc1Cl	–	880	30	487	–	–	–	–	128	–	132	–	–	–	–	–	inactive
C[C@@H](Oc1ccc2[nH]nc(-c3ccc(N4CCN(S(C)(=O)=O)CC4=O)nc3)c2c1)c1c(Cl)cncc1Cl	3.3	653	48	407	–	–	–	–	412	–	–	–	–	–	–	–	–
C[C@@H](Oc1ccc2[nH]nc(-c3ccc(N4CCN(S(C)(=O)=O)C5(CC5)C4)nc3)c2c1)c1c(Cl)cncc1Cl	4.8	172	12	–	–	–	–	–	–	–	–	–	–	–	–	–	–
CCOC(=O)N1CC2(C1)CN(c1ccc(-c3n[nH]c4ccc(O[C@H](C)c5c(Cl)cncc5Cl)cc34)cn1)C2	–	434	22	248	–	–	–	–	418	–	27	–	–	–	–	–	–
Cc1cncc(C)c1[C@@H](C)Oc1ccc2[nH]nc(-c3ccc(N4CC5(C4)CN(S(C)(=O)=O)C5)nc3)c2c1	–	135	8.1	86	–	–	–	–	52	–	32	–	–	–	–	–	–
C[C@@H](Oc1ccc2[nH]nc(-c3ccc(N4CCOCC4)nc3)c2c1)c1c(Cl)cncc1Cl	5.5	514	36	313	–	–	–	–	1230	–	–	–	–	–	–	–	–
C[C@@H](Oc1ccc2[nH]nc(-c3ccc(N4CC5(C4)CN(S(C)(=O)=O)C5)nc3)c2c1)c1c(Cl)cnnc1Cl	–	179	8.6	67	38	1580	193	89	–	–	18	144	–	3000	–	–	–
C[C@@H](Oc1ccc2[nH]nc(-c3ccc(N4CC5(C4)CN(S(C)(=O)=O)C5)nn3)c2c1)c1c(Cl)cncc1Cl	–	204	8.7	224	27	34	238	–	278	–	> 100	–	–	–	–	–	–
C[C@@H](Oc1ccc2[nH]nc(-c3ccc(N4CC5(CCS(=O)(=O)C5)C4)nc3)c2c1)c1c(Cl)cncc1Cl	–	104	3.2	111	9.2	10	83	22	106	56	102	–	–	–	–	–	–

Reference: ChEMBL document CHEMBL5579895, “Discovery of TYRA-300: First Oral Selective FGFR3 Inhibitor for the Treatment of Urothelial Cancers and Achondroplasia” (J Med Chem, 2024)
